# In patent US5684034A, “1H-indole-3-acetamide sPLA2 inhibitors” (Eli Lilly and Company, priority 1995, dated 1997):
# Several values for one entry are separate records, joined by “and”; a condition that tells them apart may be missing. Identical values can stand only once. Counter-ions that a name gives are not always drawn.
# Target: T1, recombinant human secreted phospholipase A2 (Homo sapiens, UniProt P14555)
# T1 sequence (P14555 21-144): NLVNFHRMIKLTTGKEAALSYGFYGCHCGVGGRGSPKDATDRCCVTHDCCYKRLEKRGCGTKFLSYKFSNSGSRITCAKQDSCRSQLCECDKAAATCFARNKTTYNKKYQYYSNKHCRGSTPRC
# Assay: Human secreted phospholipase A2 inhibition test (chromogenic assay, diheptanoyl thio-PC substrate)
# Format: biochemical
# Settings: Inhibition of human secreted PLA2 IC50 ± mean deviation (3-5 tests), pH 7.5, 40° C., 30 minutes, 405 nm
# Description: The following chromogenic assay procedure was used to identify and evaluate inhibitors of recombinant human secreted phospholipase A2. The assay described herein has been adapted for high volume screening using 96 well microtiter plates.
# A measured volume of racetic dipheptanoyl thio PC supplied in chloroform at a concentration of 100 mg/ml is taken to dryness and redissolved in 10 millimolar TRITON X-100™ nonionic detergent aqueous solution. Reaction Buffer is added to the solution, then DTNB to give the Reaction Mixture.
# The reaction mixture thus obtained contains 1 mM diheptanoly thio-PC substrate, 0.29 mm Triton X-100™ detergent, and 0.12 mm DTMB in a buffered aqueous solution at pH 7.5.
# 1. Add 0.2 ml reaction mixture to all wells;
# 2. Add 10 ul test compound (or solvent blank) to appropriate wells, mix 20 seconds:
# 3. Add 50 nanograms of sPLA2 (10 microliters) to appropriate wells;
# 4. incubate plate at 40° C. for 30 minutes;
# All compounds were tested in triplicate. […] Each sample was titrated in triplicate and result values were averaged for plotting and calculation of IC50 values. […] Each IC50 value was determined three times.
row,IC50,SMILES
1,3800 nM and 3600 nM,"NC(=O)Cc1cn(Cc2ccccc2)c2ccc(OCP(=O)(O)O)cc12 [Example 81, [[3-(2-Amino-2-oxoethyl)-1-(phenylmethyl)-1H-indol-5-yl]oxy]methyl]phosphonic acid disodium salt]"
2,50 ± 150 nM,"Cc1c(CC(N)=O)c2c(OCC(=O)O)cccc2n1Cc1cccc(Cl)c1 [Example 72, [[3-(2-Amino-2-oxoethyl)-1-[(3-chlorophenyl)methyl]-2-methyl-1H-indol-4-yl]oxy]methyl]acetic acid sodium salt]"
3,140 ± 40 nM,"C=CCc1c(O)ccc2c1c(CC(N)=O)c(CC)n2Cc1ccccc1 [Example 93, 4-Allyl-2-ethyl-5-hydroxy-1-(phenylmethyl)-1H-indole-acetamide]"
4,150 ± 10 nM,"Cc1c(CC(N)=O)c2cc(OCc3ccccc3C(=O)O)ccc2n1Cc1ccccc1 [Example 97, 2-[[[3-(2-Amino-2-oxoethyl)-2-methyl-1-(phenylmethyl)-1H-indol-5-yl]oxy]methyl]benzoic acid]"
5,160 ± 190 nM,"CSc1c(CC(N)=O)c2cc(OCCCC(=O)O)ccc2n1Cc1ccccc1 [Example 46, 4-[[3-(2-Amino-2-oxoethyl)-2-(methylthio)-1-(phenylmethyl)-1H-indol-5-yl]oxy]butanoic acid]"
6,7460 ± 1660 nM,"Cc1c(CC(N)=O)c2c(O)cccc2n1Cc1ccccc1 [Example 36, 4-Hydroxy-2-methyl-1-(phenylmethyl)-1H-indole-3-acetamide]"
7,60 ± 20 nM,"NC(=O)Cc1c(Cl)n(Cc2ccccc2)c2ccc(OCCCC(=O)O)cc12 [Example 24, 4-[[3-(2-Amino-2-oxoethyl)-2-chloro-1-(phenylmethyl)-1H-indole-5-yl]oxy]butanoic acid]"
8,840 ± 380 nM,"Cc1c(CC(N)=O)c2cc(O)ccc2n1Cc1ccccc1 [Example 2, 5-Hydroxy-2-methyl-1-(phenylmethyl)-1H-indole-3-acetamide]"

row,SMILES,IC50
1,"COP(=O)(CCCOc1ccc2c(c1)c(CC(N)=O)c(Br)n2Cc1ccccc1)OC [Example 86, [3-[[3-(2-Amino-2-oxoethyl)-2-bromo-1-(phenylmethyl)-1H-indol-5-yl]oxy]propane]phosphonic acid dimethyl ester]",420 ± 210 nM
2,COP(=O)(O)CCCOc1ccc2c(c1)c(CC(N)=O)c(Br)n2Cc1ccccc1 [Example 87],72 ± 17 nM
3,"CSc1c(CC(N)=O)c2cc(OCCCC(N)=O)ccc2n1Cc1ccccc1 [Example 47, 5-(4-Amino-4-oxobutoxy)-2-(methylthio)-1-(phenylmethyl)-1H-indole-3-acetamide]",90 ± 60 nM

# Same assay, conditions: pH 7.5, 40° C., 30 minutes, 405 nm; read-out: Inhibition of human secreted PLA2 IC50 ± mean deviation (3-5 tests)
row,IC50,SMILES
1,39 ± 4 nM,"CCc1c(CC(N)=O)c2c(OCC(=O)O)cccc2n1Cc1cccc(Cl)c1 [Example 75, 2-[[3-(2-Amino-2-oxoethyl)-1-[(3-chlorophenyl)methyl]-2-ethyl-1H-indol-4-yl]oxy]acetic acid]"
2,3700 ± 2820 nM,"COc1ccc2c(c1)c(CC(N)=O)cn2Cc1ccccc1 [Example 3, 5-Methoxy-1-(phenylmethyl)-1H-indole-3-acetamide]"
3,7960 ± 1220 nM,"Cc1c(CC(N)=O)c2ccc(OCCCCC(=O)O)cc2n1Cc1ccccc1 [Example 34, 5-[[3-(2-Amino-2-oxoethyl)-2-methyl-1-(phenylmethyl)-1H-indol-6-yl]oxy]pentanoic acid]"
4,680 nM,CCCCCCCCCCn1c(C)c(CC(N)=O)c2cc(OCCCC(=O)O)ccc21 [Example 53]
5,> 100000 nM,"CCCCCCCCCCCCCCn1c(C)c(CC(N)=O)c2cc(OC)ccc21 [Example 48, 5-Methoxy-2-methyl-1-tetradecyl-1H-indole-3-acetamide]"
6,360 ± 130 nM,"Cc1c(CC(N)=O)c2c(OCC(=O)NN)cccc2n1Cc1ccccc1 [Example 65, 4-(2-Hydrazino-2-oxoethoxy)-2-methyl-1-(phenylmethyl)-1H-indole-3-acetamide]"
7,920 ± 240 nM,"Cc1c(CC(N)=O)c2cc(OCc3ccccc3)ccc2n1Cc1ccccc1 [Example 13, 5-Benzyloxy-2-methyl-1-(phenylmethyl)-1H-indole-3-acetamide]"
8,1270 nM,CCOC(=O)CCCOc1ccc2c(c1)c(CC(N)=O)c(CC)n2Cc1ccccc1 [Example 57]
9,1010 ± 320 nM,"Cc1c(CC(N)=O)c2cc(Oc3ccccc3)ccc2n1Cc1ccccc1 [Example 95, 2-Methyl-5-phenoxy-1-(phenylmethyl)-1H-indole-3-acetamide]"
10,1510 ± 580 nM,"Cc1c(CC(N)=O)c2cc(C(N)=O)ccc2n1Cc1ccccc1 [Example 15, 5-Aminocarbonyl-2-methyl-1-(phenylmethyl)-1H-indole-3-acetamide]"
11,1610 ± 440 nM,"Cc1c(CC(N)=O)c2cc(N)ccc2n1Cc1ccccc1 [Example 17, 5-Amino-2-methyl-1-(phenylmethyl)-1H-indole-3-acetamide]"
12,337 nM and 305 nM,"NC(=O)Cc1cn(Cc2ccccc2)c2cccc(OCC(=O)O)c12 [Example 76, 2-[[3-(2-Amino-2-oxoethyl)-1-(phenylmethyl)-1H-indol-4-yl]oxy]acetic acid]"
13,14 ± 4 nM,"NC(=O)Cc1cn(Cc2ccccc2)c2cc(Cl)c(OCCCP(=O)(O)O)cc12 [Example 92, 3-[4-[[3-(2-Amino-2-oxoethyl)-6-chloro-1-(phenylmethyl)-1H-indol-5-yl]oxy]propyl]phosphonic acid]"
14,1550 ± 930 nM,"Cc1c(CC(N)=O)c2cc(NCCC(=O)NN)ccc2n1Cc1ccccc1 [Example 28, 3-[[3-(2-Amino-2-oxoethyl)-2-methyl-1-(phenylmethyl)-1H-indol-5-yl]amino]propanoic acid hydrazide]"
15,250 ± 30 nM,"COc1ccc2c(c1)c(CC(N)=O)c(Cl)n2Cc1ccccc1 [Example 11, 2-Chloro-5-methoxy-1-(phenylmethyl)-1H-indole-3-acetamide]"
16,5880 ± 1170 nM,"Cc1c(CC(N)=O)c2cc(O)ccc2n1Cc1cccc(Cl)c1 [Example 70, 1-[(3-Chlorophenyl)methyl]-5-hydroxy-2-methyl-1H-indole-3-acetamide]"
17,1050 ± 110 nM,"COC(=O)CCOc1ccc2c(c1)c(CC(N)=O)c(C)n2Cc1ccccc1 [Example 20, 3-[[3-(2-Amino-2-oxoethyl)-2-methyl-1-(phenylmethyl)-1H-indol-5-yl]oxy]-propanic acid methyl ester]"
18,450 ± 80 nM,"CCOC(=O)CCCOc1ccc2c(CC(N)=O)c(C)n(Cc3ccccc3)c2c1 [Example 31, 4-[[3-(2-Amino-2-oxoethyl)-2-methyl-1-(phenylmethyl)-1H-indol-6-yl]oxy]butanoic acid ethyl ester]"
19,90 ± 10 nM,"NC(=O)Cc1c(Br)n(Cc2ccccc2)c2cc(Cl)c(O)cc12 [Example 90, 2-Bromo-6-chloro-5-hydroxy-1-(phenylmethyl)-H-indole-3-acetamide]"
20,120 ± 20 nM,"COc1cc2c(CC(N)=O)c(Br)n(Cc3ccccc3)c2cc1Cl [Example 89, 2-Bromo-6-chloro-5-methoxy-1-(phenylmethyl)-H-indole-3-acetamide]"
21,5450 ± 1620 nM,"COc1ccc2c(c1)c(CC(N)=O)c(C)n2Cc1ccc(OCc2ccccc2)cc1 [Example 7, 1-[(4-Benzyloxyphenyl)methyl]-5-methoxy-2-methyl-1H-indole-3-acetamide]"
22,8280 ± 4330 nM,"CCCCCCCCn1c(C)c(CC(N)=O)c2cc(OC)ccc21 [Example 51, 5-Methoxy-2-methyl-1-octyl-1H-indole-3-acetamide]"
23,470 ± 50 nM,CCCCCCCCCCCCCCn1c(C)c(CC(N)=O)c2cc(OCCCC(=O)O)ccc21 [Example 49]
24,1380 ± 520 nM,"COc1ccc2c(c1)c(CC(N)=O)c(C)n2Cc1cccc(Cl)c1 [Example 69, 1-[(3-Chlorophenyl)methyl]-5-methoxy-2-methyl-1H-indole-3-acetamide]"
